Experimental findings from ChEMBL document CHEMBL1201862, “PubChem BioAssay data set” (2004) are described below.

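Five concentrations, 48 hours, 96-well plates. Abbreviation: GI50, concentration required for 50% inhibition of growth.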 The source made the active and inactive calls. Cut-off read from the data, not from the text of the source: active = GI50 up to about 1.1 µM and inactive = higher. Square brackets hold non-standard residues; d marks the D form. Peptide text beside a SMILES is read from it. * marks the point of attachment. ξ: configuration not given here. Propanoyl(3-(4-MeO-Ph)) = COc1ccc(CCC(=O)*)cc1; Thr(3ξ) = CC(O)[C@H](N)C(=O)O; dNMeL = CN[C@H](CC(C)C)C(=O)O; ξLac = CC(O)C(=O)O

Test in all cases: NCI-60 cell line screen, 48 h
The test system of experiment [1] is A498.
Experiment [2] deals with A549.
Experiment [3] concerns CCRF-CEM.
Experiment [4] deals with COLO 205.
Experiment [5] has as its system Hs-578T.
Experiment [6] deals with LOX IMVI.
In experiment [7] the test system is M14.
Experiment [8] has as its system MDA-MB-231.
Experiment [9] has as its system MDA-N.
For experiment [10], the system named is MOLT-4.
Experiment [11] concerns NCI/ADR-RES.
Experiment [12] has as its system OVCAR-3.
The test system of experiment [13] is OVCAR-8.
Experiment [14] relates to RPMI-8226.
Experiment [15] concerns RXF 393.
Experiment [16] has as its system SF-268.
For experiment [17], the system named is SK-MEL-28.
Experiment [18] has as its system SR.

As to `O=[N+]([O-])c1cc(Cl)ccc1S(=O)(=O)c1cc(Cl)cc2c1NCCC2`, the GI50 in [1] is > 100 µM (inactive); in experiment [2], 52 µM (inactive); in experiment [3], 26.4 µM (inactive); in [4] it was 99.8 µM (inactive); in experiment [5], 95.1 µM (inactive); in experiment [6], 58.5 µM (inactive). Besides, the GI50 was 53 µM (inactive) in [7]; > 100 µM (inactive) in [8]; 39.3 µM (inactive) in experiment [9]; 27.6 µM (inactive) in experiment [10]; 71.4 µM (inactive) in [11]; 62.7 µM (inactive) in experiment [12]. Also, the GI50 in [13] was 56.6 µM (inactive); in experiment [14] it was > 100 µM (inactive); in experiment [15], 41.4 µM (inactive); in experiment [16] it was 82.4 µM (inactive); in [17], 35.8 µM (inactive); in experiment [18] it was 53.5 µM (inactive).
Consider `Cc1cc(-c2nc3ccccc3s2)ccc1N`, for which the GI50 in experiment [1] was 4.34 µM (inactive); in [2], 32.8 µM (inactive); in [3], 9.44 µM (inactive); in [4], 40.7 µM (inactive); in experiment [5], > 100 µM (inactive); in experiment [6] it was 31.6 µM (inactive). The GI50 is 36.8 µM (inactive) in [7]; 38.6 µM (inactive) in experiment [8]; 60.7 µM (inactive) in [9]; 13.5 µM (inactive) in experiment [10]; 57.4 µM (inactive) in experiment [11]; 35.9 µM (inactive) in [12]. Further, the GI50 was 61.5 µM (inactive) in experiment [13]; 9.79 µM (inactive) in experiment [14]; 50.8 µM (inactive) in [15]; 52 µM (inactive) in [16]; > 76.6 µM (inactive) in [17]; 25.6 µM (inactive) in experiment [18].
For the compound `COC(=O)[C@@H](NC(=O)[C@@H](CC(C)C)N(C)C(=O)[C@@H]1CCCN1C(=O)C(C)O)C(C)OC(=O)CCc1ccc(OC)cc1` (some centres not stated) (H-[ξLac]P[dNMeL][Thr(3ξ)](Propanoyl(3-(4-MeO-Ph)))-OMe), the GI50 in [1], in experiment [2], in experiment [3], in [4], in [5] and in experiment [6] was > 100 µM (inactive) in each case. For the same compound, the GI50 is > 100 µM (inactive) in [7]; > 100 µM (inactive) in experiment [8]; > 100 µM (inactive) in experiment [9]; 60.5 µM (inactive) in [10]; > 100 µM (inactive) in [11]; > 100 µM (inactive) in experiment [12]. For the same compound, the GI50 in [13], in [14], in [15], in experiment [16], in [17] and in experiment [18] was > 100 µM (inactive) each time.
Regarding `COC(=O)Nc1nc2ccccc2[nH]1` [CARBENDAZIM], the GI50 in experiment [1] is > 100 µM (inactive); in experiment [2], 6.97 µM (inactive); in [3], 21.2 µM (inactive); in experiment [4], 5.05 µM (inactive); in experiment [5], 12.9 µM (inactive); in experiment [6], 8.73 µM (inactive). For the same compound, the GI50 was 4.69 µM (inactive) in experiment [7]; 27.8 µM (inactive) in experiment [8]; 2.98 µM (inactive) in experiment [9]; 6.34 µM (inactive) in experiment [10]; 3.13 µM (inactive) in experiment [11]; 4 µM (inactive) in experiment [12]. In addition, the GI50 is 10.8 µM (inactive) in experiment [13]; 5.25 µM (inactive) in experiment [14]; 17.5 µM (inactive) in [15]; > 51.3 µM (inactive) in experiment [16]; 16.2 µM (inactive) in experiment [17]; 7.33 µM (inactive) in experiment [18].
On to `CC1(C)[C@@H]2C[C@H]1c1cnc(-c3ccccn3)cc1[C@H]2C(O)[C@@H]1c2cc(-c3ccccn3)ncc2[C@H]2C[C@@H]1C2(C)C` (some centres not stated), for which the GI50 in experiment [1] is 0.491 µM (active); in experiment [2], 0.154 µM (active); in experiment [3], < 0.0222 µM (active); in experiment [4], 0.161 µM (active); in [5], 6.93 µM (inactive); in experiment [6] it was 0.0272 µM (active). For the same compound, the GI50 is 0.082 µM (active) in experiment [7]; 0.338 µM (active) in [8]; 0.627 µM (active) in [9]; 0.0285 µM (active) in experiment [10]; 0.101 µM (active) in experiment [11]; 0.0281 µM (active) in [12]. Moreover, the GI50 in [13] is 0.124 µM (active); in experiment [14] it was 0.0893 µM (active); in experiment [15] it was 0.198 µM (active); in experiment [16] it was 0.126 µM (active); in experiment [17], 0.47 µM (active); in experiment [18] it was 0.0309 µM (active).
As for `CC(C)(CN)CN`, the GI50 in experiment [1], in experiment [2], in experiment [3], in [4], in experiment [5] and in experiment [6] was > 100 µM (inactive) throughout. The GI50 in experiment [7], in experiment [8], in experiment [9], in experiment [10], in experiment [11] and in [12] was > 100 µM (inactive) each time. Also, the GI50 in [13], in [14], in experiment [15], in experiment [16], in experiment [17] and in experiment [18] was > 100 µM (inactive) in each case.
For `COc1ccc(C2N(c3ccc(F)c([N+](=O)[O-])c3)C(=O)N3C(c4ccc(OC)cc4)N(c4ccc(F)c([N+](=O)[O-])c4)C(=O)N23)cc1` (configuration not stated), the GI50 in experiment [1], in experiment [2], in experiment [3], in [4], in experiment [5] and in experiment [6] was > 100 µM (inactive) throughout. Further, the GI50 in [7] is 65.9 µM (inactive); in experiment [8], 57.1 µM (inactive); in experiment [9], > 100 µM (inactive); in [11], > 100 µM (inactive); in [12], > 100 µM (inactive); in experiment [13] it was > 100 µM (inactive). The GI50 in experiment [14], in experiment [15], in [16], in experiment [17] and in experiment [18] was > 100 µM (inactive) throughout.
On to `Nc1nc(Cl)cc(NCC2(O)CCC2)n1`, for which the GI50 in [1] is > 100 µM (inactive); in [2] it was > 100 µM (inactive); in experiment [3] it was > 10 µM (inactive); in experiment [4], > 100 µM (inactive); in experiment [5] it was > 100 µM (inactive); in experiment [6], > 100 µM (inactive). The GI50 in experiment [8], in experiment [9], in [10], in experiment [11], in experiment [12] and in experiment [13] was > 100 µM (inactive) throughout. Also, the GI50 in experiment [14], in experiment [15], in experiment [16], in [17] and in [18] was > 100 µM (inactive) each time.
